Data as given in patent US20250051277A1, “DELIVERY OF THERAPEUTIC ALKALOID COMPOUNDS” (Sensorium Therapeutics, Inc., priority 2021, published 2025).
Read-outs that look alike come from different tables or passages of the source.

Assays:
[1] = Hydrolysis Assay of Example A1 (conversion by LCMS); type: physicochemical
Experimental: The hydrolysis kinetics was under a certain temperature and measured by LCMS at a certain time interval. The corresponding LCMS chromatograms were recorded and the conversions were calculated. The hydrolysis conditions and the data were summarized in below table. LCMS spectra were obtained using Agilent 1200/G1956A or SHIMADZU LCMS-2020. Standard LCMS conditions were as follows (running time 1.55 minutes): • Acidic condition: Mobile Phase A: 0.0375% TFA in water (v/v). Mobile Phase B: 0.01875% TFA in acetonitrile (v/v); Column: Kinetex EVO C18 30*2.1 mm, 5 μm. • Basic condition: Mobile Phase A: 0.025% NH3·H2O in water (v/v). Mobile Phase B: Acetonitrile; Column: Kinetex EVO C18 2.1×30 mm, 5 μm. • Conversion (%)=peak area 1/(peak area 1+peak area 2)*100%, peak area 1 is the integration of hydrolyzed product, peak area 2 is the integration of starting material.

[2] = type: physicochemical; settings: DI water, 25° C., 0.5 mM
[3] = 5 μM
[4] = Plasma Stability Assay of Example A3, human plasma; settings: 5 μM, 37° C., % of prodrug compound remaining
[5] = type: physicochemical; settings: SGF with pepsin, pH 1.5, 37° C., 0.5 mM
[6] = Plasma Stability Assay of Example A3, mouse plasma; settings: 5 μM, 37° C., % of prodrug compound remaining
[7] = pH = 2.0, 25° C., 0.5 mM, 0.01M HCl, 0-24 h

Compound	Condition 2 Conversion (%) ([2]; time 1 min)	Condition 2 Conversion (%) ([2]; time 5 min)	Condition 2 Conversion (%) ([2]; time 30 min)	Condition 2 Conversion (%) ([2]; time 1 h)	Condition 2 Conversion (%) ([2]; time 4 h)	Condition 2 Conversion (%) ([2]; time 24 h)	Mouse Plasma Compound 001 (%) ([3]; 15 min)	Mouse Plasma Compound 001 (%) ([3]; 30 min)	Mouse Plasma Compound 001 (%) ([3]; 120 min)	Mouse Plasma Compound 001 (%) ([3]; 240 min)	Human Plasma Prodrug (%) ([4]; 0 min)	Human Plasma Prodrug (%) ([4]; 15 min)	Human Plasma Prodrug (%) ([4]; 30 min)	Human Plasma Prodrug (%) ([4]; 60 min)	Human Plasma Prodrug (%) ([4]; 120 min)	Human Plasma Prodrug (%) ([4]; 240 min)	Condition 1 Conversion (%) ([5]; time 1 min)	Condition 1 Conversion (%) ([5]; time 5 min)	Condition 1 Conversion (%) ([5]; time 30 min)	Condition 1 Conversion (%) ([5]; time 1 h)	other results
COc1ccc([C@]23CCN(C)[C@H]2CC2(CC3)OCCO2)cc1OC (racemic) [Compound 013, 3′a-(3,4-dimethoxyphenyl)-1′-methyl-spiro[1,3-dioxolane-2,6′-2,3,4,5,7,7a-hexahydroindole]]	–	–	–	–	–	–	–	–	–	–	–	–	–	–	–	–	–	–	–	–	conversion to mesembrine in the Hydrolysis Assay ([1]; acidic pH 2.0, 5° C. as printed): not at 5 °C; conversion to mesembrine in the Hydrolysis Assay ([1]; acidic pH 2.0, temperatures of 37 and 50° C.): converted to mesembrine; Conversion (%) [1, 7]: 0%; Notes (hydrolysis) [1, 7]: Stable; Conversion (%) ([1]; pH = 2.0, 37° C., 0.5 mM, 0.01M HCl, 16 h): 17%; Conversion (%) ([1]; pH = 2.0, 37° C., 0.5 mM, 0.01M HCl, 24 h): 22%; Conversion (%) ([1]; pH = 2.0, 37° C., 0.5 mM, 0.01M HCl, 42 h): 35%; Conversion (%) ([1]; pH = 2.0, 37° C., 0.5 mM, 0.01M HCl, 56 h): 50%; Conversion (%) ([1]; pH = 2.0, 37° C., 0.5 mM, 0.01M HCl, 7 d): 77%; Conversion (%) ([1]; pH = 2.0, 50° C., 0.5 mM, 0.01M HCl, 10 min): 1%; Conversion (%) ([1]; pH = 2.0, 50° C., 0.5 mM, 0.01M HCl, 40 min): 2%; Conversion (%) ([1]; pH = 2.0, 50° C., 0.5 mM, 0.01M HCl, 120 min): 19%; Conversion (%) ([1]; pH = 2.0, 50° C., 0.5 mM, 0.01M HCl, 22 h): 90%
COc1ccc([C@@]23CCC(OC(=O)C(C)(C)C)=C[C@@H]2N(C)CC3)cc1OC [Compound 309, [(3aS,7aS)-3a-(3,4-dimethoxyphenyl)-1-methyl-3,4,5,7a-tetrahydro-2H-indol-6-yl]2,2-dimethylpropanoate]	0	0	0	0	0	0	61.7	63.7	63.2	60.9	100.0	64.5	41.4	16.5	3.6	2.0	0	0	0	0	Mouse Plasma Compound 001 (%) ([3]; 60 min): 62.6%; Condition 1 Conversion (%) ([5]; time 4 h): 0%; Condition 1 Conversion (%) ([5]; time 24 h): 0%; Mouse Plasma Prodrug (%) ([6]; 0 min): 100.0%; Mouse Plasma Prodrug (%) ([6]; 15 min): 34.6%; Mouse Plasma Prodrug (%) ([6]; 30 min): 24.9%; Mouse Plasma Prodrug (%) ([6]; 60 min): 8.2%; Mouse Plasma Prodrug (%) ([6]; 120 min): 0.0%; Mouse Plasma Prodrug (%) ([6]; 240 min): 0.0%
COc1ccc([C@@]23CCC(OC(=O)C4CC4)=C[C@@H]2N(C)CC3)cc1OC [Compound 312, [(3aS,7aS)-3a-(3,4-dimethoxyphenyl)-1-methyl-3,4,5,7a-tetrahydro-2H-indol-6-yl]cyclopropanecarboxylate]	0	0	0	0	0	0	66.1	70.8	61.7	61.5	100.0	8.1	6.2	20.9	10.5	13.8	0	0	0	0	Mouse Plasma Compound 001 (%) ([3]; 60 min): 64.4%; Condition 1 Conversion (%) ([5]; time 4 h): 0%; Condition 1 Conversion (%) ([5]; time 24 h): 0%; Mouse Plasma Prodrug (%) ([6]; 0 min): 100.0%; Mouse Plasma Prodrug (%) ([6]; 15 min): 3.5%; Mouse Plasma Prodrug (%) ([6]; 30 min): 1.6%; Mouse Plasma Prodrug (%) ([6]; 60 min): 2.2%; Mouse Plasma Prodrug (%) ([6]; 120 min): 2.8%; Mouse Plasma Prodrug (%) ([6]; 240 min): 0.8%
C/C=C(\C)C(=O)OC1=C[C@@H]2N(C)CC[C@]2(c2ccc(OC)c(OC)c2)CC1 [Compound 313, [(3aS,7aS)-3a-(3,4-dimethoxyphenyl)-1-methyl-3,4,5,7a-tetrahydro-2H-indol-6-yl](E)-2-methylbut-2-enoate]	0	0	0	0	0	0	37.2	36.3	35.2	35.0	100.0	62.2	35.1	12.8	2.4	0.4	0	0	0	0	Mouse Plasma Compound 001 (%) ([3]; 60 min): 37.1%; Condition 1 Conversion (%) ([5]; time 4 h): 0%; Condition 1 Conversion (%) ([5]; time 24 h): 0%; Mouse Plasma Prodrug (%) ([6]; 0 min): 100.0%; Mouse Plasma Prodrug (%) ([6]; 15 min): 2.1%; Mouse Plasma Prodrug (%) ([6]; 30 min): 0.7%; Mouse Plasma Prodrug (%) ([6]; 60 min): 0.1%; Mouse Plasma Prodrug (%) ([6]; 120 min): 0.0%; Mouse Plasma Prodrug (%) ([6]; 240 min): 0.0%
C=C(C)C(=O)OC1=C[C@@H]2N(C)CC[C@]2(c2ccc(OC)c(OC)c2)CC1 [Compound 315, [(3aS,7aS)-3a-(3,4-dimethoxyphenyl)-1-methyl-3,4,5,7a-tetrahydro-2H-indol-6-yl]-2-methylprop-2-enoate]	0	0	0	0	0	0	60.4	61.9	57.3	55.8	100.0	16.6	2.3	0.5	0.2	0.0	0	0	0	0	Condition 1 Conversion (%) ([5]; time 4 h): 0%; Condition 1 Conversion (%) ([5]; time 24 h): 0%; Mouse Plasma Prodrug (%) ([6]; 0 min): 100.0%; Mouse Plasma Prodrug (%) ([6]; 15 min): 5.3%; Mouse Plasma Prodrug (%) ([6]; 30 min): 2.4%; Mouse Plasma Prodrug (%) ([6]; 60 min): 1.3%; Mouse Plasma Prodrug (%) ([6]; 120 min): 2.0%; Mouse Plasma Prodrug (%) ([6]; 240 min): 1.9%
